According to patent publication US20260200925A1, “SMALL MOLECULE INHIBITORS OF KRAS MUTATED PROTEINS” (MERCK SHARP & DOHME LLC, priority 2021, published 2026):
Where a name gives a salt, the structure may show the parent alone.

Columns and labels:
[1] = target: G13D (Homo sapiens, UniProt P01116, G13D); assay: Guanine nucleotide exchange (GNE) assay, G13D; format: biochemical
Procedure: (§1) The TR-FRET signal is measured on an Envision (PerkinElmer) plate reader: Excitation filter=340 nm; emission 1=495 nm; emission 2=520 nm; dichroic mirror=D400/D505; delay time=100 ms. The signal of each well is determined as the ratio of the emission at 520 nm to that at 495 nm. […] The apparent effect as a function of compound concentration is fit to a four-parameter logistic equation to calculate IC50 values using Spotfire software.

[2] = system: AsPC-1 cells containing homozygous KRAS-G12D activating mutation (p-ERK); settings: Homo sapiens, ASPC1, 2 h, read-out: KRAS G12D ASPC-1 IC50 (nM)
Procedure: Procedure for Cellular Phospho-ERK Assay, G12D
AsPC-1 cells (ATCC® CRL-1682™), containing homozygous KRAS-G12D activating mutation, were cultured in T150 flask in growth medium (RPMI medium 1640-GlutaMAX™—I (ThermoFisher Scientific 61870) containing 10% fetal bovine serum (ThermoFisher Scientific 10091148)). The cells were harvested in growth medium after TrypLE (ThermoFisher scientific 12604021) digestion and were seeded in a 384-well collagen coated cell culture plate (Corning 356702) at a density of 15,000 cells/well, and incubated at 37° C., 5% CO2 overnight. […] RPMI medium 1640-GlutaMAX™—I was added to the intermediate plate and the contents of the intermediate plate were then transferred to the 384-well collagen coated cell culture plate, which was incubated at 37° C., 5% CO2 for 2 hours. After removal of medium from the collagen coated cell culture plate, cells were lysed in lysis buffer from Alpha SureFire® Ultra™ Multiplex p-ERK and total ERK assay kit (PerkinElmer MPSU-PTERK) containing Halt™ Protease and Phosphatase inhibitor cocktail (ThermoFisher Scientific 78446) at room temperature with constant shaking at 300 rpm for 30 minutes. The cell lysates were then transferred to an OptiPlate-384 plate (PerkinElmer 6005620), and the phosphorylation of ERK (p-ERK) and total ERK levels were detected by Alpha SureFire® Ultra™ Multiplex p-ERK kit and total ERK assay kit (PerkinElmer MPSU-PTERK) following the manufacturer's protocol. Assay plates were read on a EnVision Multimode Plate Reader (PerkinElmer), and the ratio of p-ERK vs. total ERK in each well was used as the final readout. Dose response curves were analyzed using a 4-parameter logistic model to calculate IC50 values using Spotfire software.

[3] = target: Recombinant KRAS-G12D (SEQ ID NO: 2) (Homo sapiens, UniProt P01116, G12D); assay: SOS-catalyzed guanine nucleotide exchange (GNE) assay, KRAS-G12D
Procedure: (§2) Specifically, the SOS-catalyzed nucleotide exchange assay utilizes a preformed time-resolved fluorescence resonance energy transfer (TR-FRET) complex containing a specific biotinylated RAS protein (KRAS-G12C/V/D, HRAS, NRAS; described above) with BODIPY-GDP, and Terbium-streptavidin. Test compounds are preincubated with this complex for 60 minutes.
(§3) To assemble the preformed TR-FRET complexes, each biotinylated RAS protein is diluted to 2 μM in an EDTA Buffer (20 mM HEPES, 50 mM sodium chloride, 10 mM EDTA, and 0.01% Tween) and incubated at room temperature for one hour. This mixture is then further diluted to 90 nM in an Assay Buffer (20 mM HEPES, 150 mM sodium chloride, 10 mM magnesium chloride, and 0.005% Tween) containing 15 nM of Terbium-Streptavidin (Invitrogen, catalog #PV3577) and 900 nM of BODIPY-GDP (Invitrogen, catalog #G22360) and incubated at room temperature for six hours. It should be noted that this preformed TR-FRET complex for each of the RAS proteins was made ahead of time, aliquoted and stored at −80° C. until the day of the experiment.
(§4) Once titrations are made, 10 nL of the diluted compounds is acoustically dispensed into a 384-well assay plate (Corning, catalog #3820) using an Echo 550 (Labcyte). Each well of the assay plate subsequently receives 3 μL of a specific 3× RAS preformed TR-FRET complex and 3 μL of Assay Buffer and is incubated at room temperature for 60 minutes (preincubation time). […] The final reaction in each well of 9 μL consists of 3 mM GTP, and the specific RAS and SOS proteins in the following concentrations: KRAS-G12C/SOS=3 nM/40 nM, KRAS-G12D/SOS=1 nM/40 nM, KRAS-G12V/SOS=1.25 nM/160 nM, HRAS/SOS=1.25 nM/40 nM, and NRAS/SOS=1.25 nM/40 nM.
as §1

[4] = target: Recombinant KRAS-G12V (SEQ ID NO: 3) (Homo sapiens, UniProt P01116, G12V); assay: SOS-catalyzed guanine nucleotide exchange (GNE) assay, KRAS-G12V
Procedure: as §2, §3, §4, §1

[5] = system: NCI-H358 cells containing homozygous KRAS-G12C activating mutation (p-ERK); settings: Homo sapiens, NCI-H358, 2 h, read-out: G12C H358 IC50 (nM)
Procedure: Procedure for Cellular Phospho-ERK Assay, G12C
NCI-H358 cells (ATCC® CRL-5807™), containing homozygous KRAS-G12C activating mutation, were cultured in T150 flask in growth medium (RPMI medium 1640-GlutaMAX™—I (ThermoFisher Scientific 61870) containing 10% fetal bovine serum (ThermoFisher Scientific 10091148)). The cells were harvested in growth medium after TrypLE (ThermoFisher scientific 12604021) digestion and were seeded in a 384-well collagen coated cell culture plate (Corning 356702) at a density of 15,000 cells/well, and incubated at 37° C., 5% CO2 overnight. […] RPMI medium 1640-GlutaMAX™—I was added to the intermediate plate and the contents of the intermediate plate were then transferred to the 384-well collagen coated cell culture plate, which was incubated at 37° C., 5% CO2 for 2 hours. After removal of medium from the collagen coated cell culture plate, cells were lysed in lysis buffer from Alpha SureFire® Ultra™ Multiplex p-ERK and total ERK assay kit (PerkinElmer MPSU-PTERK) containing Halt™ Protease and Phosphatase inhibitor cocktail (ThermoFisher Scientific 78446) at room temperature with constant shaking at 300 rpm for 30 minutes. The cell lysates were then transferred to an OptiPlate-384 plate (PerkinElmer 6005620), and the phosphorylation of ERK (p-ERK) and total ERK levels were detected by Alpha SureFire® Ultra™ Multiplex p-ERK kit and total ERK assay kit (PerkinElmer MPSU-PTERK) following the manufacturer's protocol. Assay plates were read on an EnVision Multimode Plate Reader (PerkinElmer), and the ratio of p-ERK vs. total ERK in each well was used as the final readout. Dose response curves were analyzed using a 4-parameter logistic model to calculate IC50 values using Spotfire software.

Recombinant KRAS-G12V (SEQ ID NO: 3), sequence (P01116 with tags, fused parts or gaps isoform P01116-2 G12V): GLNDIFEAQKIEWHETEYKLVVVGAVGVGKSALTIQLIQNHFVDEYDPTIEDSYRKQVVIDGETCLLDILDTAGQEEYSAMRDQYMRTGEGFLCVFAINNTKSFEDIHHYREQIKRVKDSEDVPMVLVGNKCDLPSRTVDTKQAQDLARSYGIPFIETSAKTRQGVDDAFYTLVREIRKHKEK
Recombinant KRAS-G12D (SEQ ID NO: 2), sequence (P01116 with tags, fused parts or gaps isoform P01116-2 G12D): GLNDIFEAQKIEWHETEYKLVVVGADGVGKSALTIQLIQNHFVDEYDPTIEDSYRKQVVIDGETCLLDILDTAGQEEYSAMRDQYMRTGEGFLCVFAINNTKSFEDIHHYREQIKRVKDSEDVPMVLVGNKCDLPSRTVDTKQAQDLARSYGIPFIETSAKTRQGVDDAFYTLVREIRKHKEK
G13D, sequence (P01116 1-188 isoform P01116-2 G13D): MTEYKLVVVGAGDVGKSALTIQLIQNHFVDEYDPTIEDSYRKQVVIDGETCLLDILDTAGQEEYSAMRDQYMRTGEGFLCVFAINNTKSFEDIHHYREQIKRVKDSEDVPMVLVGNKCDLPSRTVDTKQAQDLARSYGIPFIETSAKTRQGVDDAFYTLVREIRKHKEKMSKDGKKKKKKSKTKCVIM

Row | SMILES | IC50 [1] | IC50 [2] | IC50 [3] | IC50 [4] | IC50 [5]
1 | CC1CN(c2nc(OC[C@@]34CCCN3C[C@H](F)C4)nc3c(F)c(-c4cc(O)cc5cccc(Cl)c45)c(F)cc23)CC(C)(O)C1 (single isomer, unassigned) [Ex-33] | 86 nM |  | 163 nM | 143 nM | 
2 | C#Cc1cccc2cccc(-c3c(F)cc4c(N5CCC[C@](C)(O)C5)nc(OC[C@@]56CCCN5C[C@H](F)C6)nc4c3F)c12 (single isomer, unassigned) [Ex-46] | 291 nM | 4690 nM | 986 nM | 168 nM | 
3 | C[C@@]1(O)CCCN(c2nc(OCC3(CN4CCC(F)CC4)CC3)nc3c(F)c(-c4cc(O)cc5cccc(Cl)c45)c(F)cc23)C1 [Ex-6, (3R)-1-(7-(8-chloro-3-hydroxynaphthalen-1-yl)-6,8-difluoro-2-((1-((4-fluoropiperidin-1-yl)methyl)cyclopropyl)methoxy)quin-azolin-4-yl)-3-methylpiperidin-3-ol] |  | 3050 nM |  |  | 
4 | CN(C)C[C@@]1(COc2nc(N3CCC[C@@](C)(O)C3)c3cc(F)c(-c4cccc5ccc(F)c(Cl)c45)c(F)c3n2)CC1(F)F [Ex-14, (3R)-1-(7-(8-chloro-7-fluoronaphthalen-1-yl)-2-(((R)-1-((dimethylamino)methyl)-2,2-difluorocyclopropyl)methoxy)-6,8-difluoroquinazolin-4-yl)-3-methylpiperidin-3-ol] | 5190 nM |  | 1190 nM | 1230 nM | 
5 | Oc1cc(-c2c(F)cc3c(N4CCC[C@@H](O)C4)nc(OC[C@@]45CCCN4C[C@H](F)C5)nc3c2F)c2c(Cl)cccc2c1 [Ex-27, (3R)-1-(7-(8-chloro-3-hydroxynaphthalen-1-yl)-6,8-difluoro-2-(((2R,7aS)-2-fluorotetrahydro-1H-pyrrolizin-7a(5H)-yl)methoxy)quinazolin-4-yl)piperidin-3-ol] |  | 3840 nM |  |  | 
6 | C[C@@]1(O)CCCN(c2nc(OC[C@]3(CO)CC3(F)F)nc3c(F)c(-c4cc(O)cc5cccc(Cl)c45)c(F)cc23)C1 [Ex-30, (3R)-1-(7-(8-chloro-3-hydroxynaphthalen-1-yl)-2-(((R)-2,2-difluoro-1-(hydroxymethyl)cyclo-propyl)methoxy)-6,8-difluoroquinazolin-4-yl)-3-methylpiperidin-3-ol] |  | 3150 nM |  |  | 512 nM
7 | Oc1cc(-c2c(F)cc3c(N4CCC[C@H](O)CC4)nc(OC[C@@]45CCCN4C[C@H](F)C5)nc3c2F)c2c(Cl)cccc2c1 [Ex-35, (4S)-1-(7-(8-chloro-3-hydroxynaphthalen-1-yl)-6,8-difluoro-2-(((2R,7aS)-2-fluorotetrahydro-1H-pyrrolizin-7a(5H)-yl)methoxy)quinazolin-4-yl)azepan-4-ol] |  | 4840 nM |  |  | 1820 nM
8 | Cc1cc2[nH]ncc2c(-c2c(F)cc3c(N4CCC[C@@](C)(O)C4)nc(OCC4(CN5CC[C@@H](F)C5)CC4)nc3c2F)c1C [Ex-39, (3R)-1-(7-(5,6-dimethy1-1H-indazol-4-yl)-6,8-difluoro-2-((1-(((R)-3-fluoropyrrolidin-1-yl)methyl)cyclopropyl)methoxy)quinazolin-4-yl)-3-methylpiperidin-3-ol] | 2660 nM |  | 2710 nM | 2290 nM | 

Second part, the compound after the results:

Row | IC50 [1] | IC50 [2] | IC50 [3] | IC50 [4] | IC50 [5] | SMILES
9 | 2 nM | 132 nM | 1 nM | 2 nM |  | C#Cc1cccc2cc(O)cc(-c3c(F)cc4c(N5CCC[C@@](C)(O)C5)nc(OCC5(CN(C)C)CC5)nc4c3F)c12 (single isomer, unassigned) [Ex-11]
10 |  | 1150 nM |  |  |  | COC1CCN(CC2(COc3nc(N4CCC[C@@](C)(O)C4)c4cc(F)c(-c5cc(O)cc6cccc(Cl)c56)c(F)c4n3)CC2)CC1 [Ex-5, (3R)-1-(7-(8-chloro-3-hydroxnagphthalen-1-yl)-6,8-difluoro-2-((1-((4-methoxypiperidin-1-yl)methyl)cyclopropyl)methoxy)quinazolin-4-yl)-3-methylpiperidin-3-ol]
11 |  | 95 nM |  |  |  | C#Cc1cccc2cc(O)cc(-c3c(F)cc4c(N5CCC[C@@](C)(O)C5)nc(OCC5(CN6CCC(OC)CC6)CC5)nc4c3F)c12 [Ex-7, (3R)-1-(7-(8-ethynyl-3-hydroxvnaphthalen-1-yl)-6,8-difluoro-2-((1-((4-methoxypiperidin-1-yl)methyl)cyclopropyl)methoxy)quinazolin-4-yl)-3-methylpiperidin-3-ol]
12 |  | 86 nM |  |  | 41 nM | C#Cc1cccc2cc(O)cc(-c3c(F)cc4c(N5CCC[C@@](C)(O)C5)nc(OCC5(CN6CC[C@@H](F)C6)CC5)nc4c3F)c12 [Ex-12, (3R)-1-(7-(8-ethyny1-3-hydroxynaphthalen-1-yl)-6,8-difluoro-2-((1-(((R)-3-fluoropyrrolidin-1-yl)methyl)cyclopropyl)meth-oxy)quinazolin-4-yl)-3-methylpiperidin-3-ol]
13 |  | 352 nM |  |  | 123 nM | C#Cc1cccc2cc(O)cc(-c3ccc4c(N5CCC[C@@](C)(O)C5)nc(OCC5(CN(C)C)CC5)nc4c3F)c12 [Ex-16, (R)-1-(2-((1-((dimethylamino)methyl)cyclopropyl)methoxy)-7-(8-ethynyl-3-hydroxynaphthalen-1-yl)-8-fluoroquinazolin-4-yl)-3-methylpiperidin-3-ol]
14 |  | 1400 nM |  |  | 611 nM | Nc1nc2c(-c3c(Cl)cc4c(N5CCCC(O)CC5)nc(OC[C@@]56CCCN5C[C@H](F)C6)nc4c3F)c(F)cc(F)c2o1 (stereo partly drawn) [Ex-25, 1-(7-(2-amino-5,7-difluorobenzo[d]oxazol-4-yl)-6-chloro-8-fluoro-2-(((2R,7aS)-2-fluorotetrahydro-1H-pyrrolizin-7a(5H)-yl)methoxy)quinazolin-4-yl)azepan-4-ol]
15 |  | 1220 nM |  |  | 2260 nM | C[C@@H]1C[C@@H](O)CN1c1nc(OC[C@@]23CCCN2C[C@H](F)C3)nc2c(F)c(-c3cc(O)cc4cccc(Cl)c34)c(F)cc12 [Ex-28, (3R,5R)-1-(7-(8-chloro-3-hydroxynaphthalen-1-yl)-6,8-difluoro-2-(((2R,7aS)-2-fluorotetrahydro-1H-pyrrolizin-7a(5H)-yl)methoxy)quinazolin-4-yl)-5-methylpyrrolidin-3-ol]
16 |  | 151 nM |  |  | 48 nM | C[C@@]1(O)COCCN(c2nc(OC[C@@]34CCCN3C[C@H](F)C4)nc3c(F)c(-c4cc(O)cc5cccc(Cl)c45)c(F)cc23)C1 [Ex-37, (6S)-4-(7-(8-chloro-3-hydroxynaphthalen-1-yl)-6,8-difluoro-2-(((2R,7aS)-2-fluorotetrahydro-1H-pyrrolizin-7a(5H)-yl)methoxy)quinazolin-4-yl)-6-methyl-1,4-oxazepan-6-ol]
17 |  | 142 nM |  |  | 59 nM | C#Cc1cccc2cc(O)cc(-c3c(F)cc4c(N5CCC[C@@](C)(O)C5)nc(OC[C@]5(CO)CC5(F)F)nc4c3F)c12 [Ex-44, (3R)-1-(2-(((R)-2,2-difluoro-1-(hydroxy-methyl)cyclopropyl)methoxy)-7-(8-ethynyl-3-hydroxynaphthalen-1-yl)-6,8-difluoroquinazolin-4-yl)-3-methylpiperidin-3-ol]
18 |  | 690 nM |  |  | 427 nM | CN1CCC[C@H]1COc1nc(N2CCC[C@@](C)(O)C2)c2cc(F)c(-c3cc(O)cc4cccc(Cl)c34)c(F)c2n1 [Ex-49, (3R)-1-(7-(8-chloro-3-hydroxynaphthalen-1-yl)-6,8-difluoro-2-(((S)-1-methylpyrrolidin-2-yl)methoxy)quinazolin-4-yl)-3-methylpiperidin-3-ol trifluoracetate salt]
